Test results: patent US20220241378A1, “COMPOSITIONS AND METHODS FOR TREATMENT OF CHRONIC GRANULOMATOUS DISEASE” (priority 2019, published 2022)

Tested on: C57BL/6 and p47phox-/- mice infected intranasally with A. fumigatus conidia
Test: Lung inflammation model: C57BL/6 and p47phox-/- mice infected intranasally with A. fumigatus
Assay type: in vivo
Method: In vivo models mimicking human pathology such as lung and gut inflammation were prepared. A model of lung inflammation was tested using C57BL/6 and p47phox-/- mice. The mice were infected with A. fumigatus intranasally and treated them with Tβ4 for 7 consecutive days starting a week after the infection. LC3-II (FIG. 1F) and DAPK1 (FIG. 1G) expression were both defective in p47phox-/- mice, but restored by Tβ4 and ablated (LC3-II) upon siTβ4 (FIGS. 10A and 10B). In addition, gut inflammation was tested using the same mouse model. Acute colitis in p47phox-/- mice was initiated by administering […] in drinking water for 7 days followed by 7 days of DSS-free autoclaved water. Subsequently, Tβ4 was therapeutically administered daily for 7 days, after DSS treatment, at the time at which mice started to lose weight. Consistent with previous findings (de Luca et al., 2014), LC3-II (FIG. 1H) and DAPK1 (FIG. 1I) expression were both defective in the colon ofp47phox-/- mice with colitis as opposed to WT mice but restored upon treatment with T134 (FIGS. 1H and 1I). DAPK1 expression in colon lysates of C57BL/6 and p47^phox-/- mice subjected to DSS-induced colitis for a week and treated intraperitoneally with 5 mg/kg Tβ4 for 7 consecutive days after DSS treatment, n=6-10 mice per group. Data are presented as mean ±SD and are representative of two experiments. Mice were categorized as Naive (uninfected or untreated mice) or None (infected mice). For immunoblotting, normalization was performed on mouse β-actin or Gapdh and corresponding pixel density or ratio is depicted. For immunofluorescence, nuclei were counterstained with DAPI. Photographs were taken with a high-resolution microscope (Olympus BX51), 40× and 100× magnification. LC3 mean fluorescence intensity (MFI) was measured with the ImageJ software. In FIGS. 1F-1H, n=6-10 mice per group. Data are presented as mean ±SD and are representative of two experiments. Naïve, uninfected or untreated mice. None, infected mice.
Viable conidia from the A. fumigatus Af293 strain were obtained as described (De Luca et al., 2012). Mice were anesthetized in a plastic cage by inhalation of 3% isoflurane (Forane Abbot) in oxygen before intranasal instillation of 2×10^7 resting conidia/20 μl saline. For survival curves, p47^phox-/- mice were challenged with […] conidia/20 μl saline. Tβ4 was administered intraperitoneally (i.p.) at the dose of 5 mg/kg at an effective dose as described (Badamchian et al., Thymosin beta(4) reduces lethality and down-regulates inflammatory mediators in endotoxin-induced septic shock. Int Immunopharmacol, 2003 3(8): p. 1225-33), every day in concomitance with (days 0→7) or after (days 7→14) infection. DMOG (Merck Millipore) was administered i.p. at the dose of 8 mg/mouse concomitantly to the infection. For Hif1a silencing, each mouse received intranasal administration of 10 mg/kg unmodified siRNA [Duplex name mm.Ri.Hif1a.13.1 (IDT); 5′-[…]-3′; 3′-[…] -5′] and Tmsb4x silencing [Duplex name mm.Ri.Tmsb4x.13.1; 5′-[…]-3′; 3′-[…] -5′], or equivalent dose of nonspecific control siRNA duplex in a volume of 20 μl of duplex buffer (IDT). Intranasal siRNA was given once the day before infection and 1, 3 and 5 days after infection (Iannitti et al., 2013 Hypoxia promotes danger-mediated inflammation via receptor for advanced glycation end products in cystic fibrosis. Am J Respir Crit Care Med 188:1338-1350). It is known that lung-specific siRNA delivery can be achieved by intranasal administration without the use of viral vectors or transfection agents in vivo (Iannitti et al., 2013 Th17/Treg imbalance in murine cystic fibrosis is linked to indoleamine 2,3-dioxygenase deficiency but corrected by kynurenines. Am J Respir Crit Care Med 187:609-620). Mice were sacrificed 7 or 14 days post infection. Fungal burden was determined by qPCR and expressed as conidial equivalents (CE). Lung tissue was aseptically removed and homogenized in 3 ml of sterile saline. […]

[1] = following Tβ4 treatment, thoracic lymph nodes, lung homogenates
[2] = lung homogenates, ELISA (FIG. 4E)

Question: Thymosin β4 [Tβ4] was tested. Which “HIF-1α protein in lung” value (CGD (p47phox-/-) mice, Tβ4 7 days concomitantly to infection (FIG. 2E, 2F)) did it give?
Answer: restored

Question: And the “fungal growth in the lung” value (both types of mice (C57BL/6 and p47phox-/-), 5 mg/kg i.p. (FIG. 4A))?
Answer: reduced

Question: And the “pathogenic Th2/Th17/Th9 cell responses” value [1]?
Answer: down-regulated

Question: What about the “protective Th1/Treg cell responses” value [1] of the same substance?
Answer: promoted

Question: What about the “NLRP3 expression in lung” value (infected mice (FIG. 4D)) of the same substance?
Answer: down-regulated

Question: And the IFNy production [2]?
Answer: reduced

Question: What about the IL-1β production [2] of the same substance?
Answer: reduced

Question: And the IL-17A production [2]?
Answer: reduced

Question: And the TNF-α production [2]?
Answer: reduced

Question: What about the “expression of genes of angiogenic signaling (Angpt2, Tie2, Vegfa), remodeling (Fgf2), hormonal regulation (Epo), cell migration (Cxcr4)” value (lungs of Aspergillus-infected mice (FIG. 3C)) of the same substance?
Answer: upregulated

Question: What about the “gross lung pathology and histological examination” value (p47phox-/- mice after Tβ4 administration (FIG. 4C)) of the same substance?
Answer: No signs of inflammatory lung injury and granuloma formation

Question: And the HIF-1α-dependent glycolytic genes (p47phox-/- mice, 5 mg/kg Tβ4 (FIG. 8A))?
Answer: not increased

Question: What about the Irg1 expression (p47phox-/- mice, 5 mg/kg Tβ4 (FIG. 8B)) of the same substance?
Answer: increased

Question: And the “LC3-II expression in lung” value (p47phox-/- mice, 5 mg/kg i.p. 7 consecutive days starting a week after infection (FIG. 1F))?
Answer: restored

Question: And the “DAPK1 expression in lung” value (p47phox-/- mice, 5 mg/kg i.p. 7 consecutive days starting a week after infection (FIG. 1G))?
Answer: restored
